Results taken from ChEMBL document CHEMBL3352029, “Ring fusion strategy for the synthesis of anthra[2,3-d]oxazole-2-thione-5,10-dione homologues as DNA topoisomerase inhibitors and as antitumor agents” (Eur J Med Chem, 2014).

Test: Cytotoxicity against human PC3 cells assessed as inhibition of cell growth after 48 hrs by sulforhodamine B assay
Format: functional, cell-based
Conditions: PC-3, 48 h

| SMILES | IC50 [µM] |
| --- | --- |
| O=C1c2ccccc2C(=O)c2cc3oc(SCc4cccc([N+](=O)[O-])c4)nc3cc21 | > 30 |
| O=C(CN1CCOCC1)Nc1cc2c(cc1O)C(=O)c1ccccc1C2=O | > 30 |
| CCN(CC)CCC(=O)Nc1cc2c(cc1O)C(=O)c1ccccc1C2=O | 23.6 |
| O=C1c2ccccc2C(=O)c2cc3oc(SCCN4CCCCC4)nc3cc21 | 21.8 |
| CCCCSc1nc2cc3c(cc2o1)C(=O)c1ccccc1C3=O | > 30 |
| O=C1COc2cc3c(cc2N1)C(=O)c1ccccc1C3=O | > 30 |
| O=C1c2ccccc2C(=O)c2cc3oc(SCc4ccccc4)nc3cc21 | > 30 |
| O=C(CN1CCCC1)Nc1cc2c(cc1O)C(=O)c1ccccc1C2=O | 26 |
| O=C1c2ccccc2C(=O)c2cc3oc(SCCN4CCOCC4)nc3cc21 | > 30 |
| O=C(CCl)Nc1cc2c(cc1O)C(=O)c1ccccc1C2=O | 23.4 |
| CCCSc1nc2cc3c(cc2o1)C(=O)c1ccccc1C3=O | > 30 |
| CCN(CC)CC(=O)Nc1cc2c(cc1O)C(=O)c1ccccc1C2=O | 20.2 |
| O=C(CCCl)Nc1cc2c(cc1O)C(=O)c1ccccc1C2=O | 26.7 |
